According to patent US8901118B2, “Compounds and methods for kinase modulation, and indications therefor” (Plexxikon Inc., priority 2010, dated 2014):

Experiments:
CYP3A4(BFC) = CYP3A4(BFC) (Homo sapiens, UniProt P08684); assay: CYP3A4(BFC) inhibition; format: in vitro ADME; conditions: CYP3A4, substrate BFC; read-out: Cyp IC50 3A4(BFC)
In short: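 Inhibition of human CYP3A4 with the BFC substrate was measured by fluorescence loss of the metabolized product. Compounds at 100 mM in DMSO were diluted 1 μL into 82 μL acetonitrile, then 11 μL into 204 μL cofactor mix with NADPH regeneration solutions, and serially diluted 1:1 to 10 points. Plates were incubated 30 min at 37° C and read at 409 ex/460 em to obtain IC50.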

CYP2D6 = CYP2D6 (Homo sapiens, UniProt P10635); assay: CYP2D6 inhibition (fluorescent substrate AMMC); format: in vitro ADME; conditions: read-out: Cyp IC50 2D6
Sequence of CYP2D6 (P10635 whole entry): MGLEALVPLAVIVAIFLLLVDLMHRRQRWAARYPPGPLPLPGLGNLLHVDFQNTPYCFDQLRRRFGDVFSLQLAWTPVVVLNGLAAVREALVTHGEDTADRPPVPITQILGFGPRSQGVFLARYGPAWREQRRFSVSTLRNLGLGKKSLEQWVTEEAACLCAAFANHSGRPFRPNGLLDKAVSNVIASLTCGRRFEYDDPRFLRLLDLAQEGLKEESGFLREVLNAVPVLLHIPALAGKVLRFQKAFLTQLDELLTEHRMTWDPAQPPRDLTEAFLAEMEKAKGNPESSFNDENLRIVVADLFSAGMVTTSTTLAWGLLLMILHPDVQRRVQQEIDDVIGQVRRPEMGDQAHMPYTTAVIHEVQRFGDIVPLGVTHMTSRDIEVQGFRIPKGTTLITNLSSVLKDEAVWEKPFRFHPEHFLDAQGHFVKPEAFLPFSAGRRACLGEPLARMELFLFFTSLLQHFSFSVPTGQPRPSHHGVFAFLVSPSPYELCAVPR
In short: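 Inhibition is measured as the drop in fluorescent metabolite formation across a 10-point compound titration with NADPH regeneration at 37 °C. Incubation lasts 15 min for CYP1A2, 45 min for CYP2C9 and 30 min for CYP2C19 and CYP2D6.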

BCR-FMS BaF3 cells = target: T1, BCR-FMS BaF3 cells (Homo sapiens, UniProt P07333); assay: BaF3 BCR-FMS cell proliferation assay (ATPlite); format: cell-based; conditions: read-out: Inhibition of Cell Proliferation IC50, BCR/BaF3 Fms
T1 construct: fused on or other part: P11274 (Breakpoint cluster region protein)
T1 sequence (P07333 582-910): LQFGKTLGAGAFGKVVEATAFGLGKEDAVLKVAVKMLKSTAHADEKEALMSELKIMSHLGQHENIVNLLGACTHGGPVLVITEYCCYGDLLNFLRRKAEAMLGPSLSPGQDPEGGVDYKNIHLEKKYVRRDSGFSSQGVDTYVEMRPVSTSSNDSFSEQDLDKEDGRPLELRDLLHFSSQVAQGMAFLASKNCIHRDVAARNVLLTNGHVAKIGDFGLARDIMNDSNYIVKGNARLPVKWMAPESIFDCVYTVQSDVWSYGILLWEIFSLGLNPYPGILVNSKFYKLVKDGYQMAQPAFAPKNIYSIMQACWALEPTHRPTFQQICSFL
In short: (§1)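 BaF3 lines were seeded at 10,000 cells/well in growth medium with 1 mg/mL G418 but no IL-3, and MV-4-11 cells at 25,000 cells/well; plates were left overnight at 37 °C. Compounds were added as an 8-point 1:3 series with a top concentration of 10 μM and incubated 3 days. IC50 was taken from ATPlite luminescence.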

BCR-NTRK2 BaF3 cells = target: T2, BCR-NTRK2 BaF3 cells (Homo sapiens, UniProt Q16620); assay: BaF3 BCR-NTRK2 cell proliferation assay (ATPlite); format: cell-based; conditions: read-out: Inhibition of Cell Proliferation IC50, BCR/BaF3 TrkB
T2 construct: fused on or other part: P11274 (Breakpoint cluster region protein)
T2 sequence (Q16620 538-807): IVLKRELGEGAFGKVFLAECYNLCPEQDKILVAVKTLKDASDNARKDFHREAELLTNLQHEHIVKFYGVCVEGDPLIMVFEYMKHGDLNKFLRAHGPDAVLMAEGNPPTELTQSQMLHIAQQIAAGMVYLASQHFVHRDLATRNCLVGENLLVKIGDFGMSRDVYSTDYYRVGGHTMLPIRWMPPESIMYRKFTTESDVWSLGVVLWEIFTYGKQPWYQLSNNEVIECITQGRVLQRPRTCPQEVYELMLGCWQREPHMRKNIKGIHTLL
In short: as §1

Sequence of CYP3A4(BFC) (P08684 whole entry): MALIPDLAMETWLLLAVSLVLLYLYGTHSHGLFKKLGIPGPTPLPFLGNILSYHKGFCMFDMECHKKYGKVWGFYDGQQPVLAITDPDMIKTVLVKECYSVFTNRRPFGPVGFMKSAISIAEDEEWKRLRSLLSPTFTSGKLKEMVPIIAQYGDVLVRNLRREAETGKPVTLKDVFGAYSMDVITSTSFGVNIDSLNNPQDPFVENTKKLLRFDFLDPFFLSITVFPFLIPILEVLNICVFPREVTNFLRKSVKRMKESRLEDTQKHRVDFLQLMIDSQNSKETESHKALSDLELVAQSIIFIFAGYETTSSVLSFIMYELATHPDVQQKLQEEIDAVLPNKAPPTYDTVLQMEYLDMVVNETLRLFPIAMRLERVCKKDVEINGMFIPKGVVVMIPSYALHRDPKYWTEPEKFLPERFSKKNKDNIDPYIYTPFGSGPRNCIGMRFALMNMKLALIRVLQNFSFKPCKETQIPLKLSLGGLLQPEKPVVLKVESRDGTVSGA

| SMILES | IC50 (CYP3A4(BFC)) | IC50 (CYP2D6) | IC50 (BCR-FMS BaF3 cells) | IC50 (BCR-NTRK2 BaF3 cells) |
| --- | --- | --- | --- | --- |
| COCCCNc1ncnc2[nH]cc(C(=O)c3ccc(Nc4ccc(OC)nc4)nc3F)c12 [Compound P-4079, [2-fluoro-6-[(6-methoxy-3-pyridyl)amino]-3-pyridyl]-[4-(3-methoxypropylamino)-7H-pyrrolo[2,3-d]pyrimidin-5-yl]methanone] | > 10 µM | > 10 µM | < 0.1 µM | < 0.01 µM |
| O=C(c1ccc(NC2CCC(F)(F)CC2)nc1)c1c[nH]c2ncnc(NC3CC3)c12 [Compound P-4088, [4-(cyclopropylamino)-7H-pyrrolo[2,3-d]pyrimidin-5-yl]-[6-[(4,4-difluorocyclohexyl)amino]-3-pyridyl]methanone] | > 10 µM | > 10 µM | < 0.1 µM | < 0.1 µM |
| COc1ccc(Nc2ccc(C(=O)c3c[nH]c4ncnc(NC5CCC5)c34)c(F)n2)cn1 [Compound P-4076, [4-(cyclobutylamino)-7H-pyrrolo[2,3-d]pyrimidin-5-yl]-[2-fluoro-6-[(6-methoxy-3-pyridyl)amino]-3-pyridyl]methanone] | > 10 µM | > 10 µM | < 0.1 µM | < 0.01 µM |
| CNc1ncnc2[nH]cc(C(=O)c3ccc(NC4CCC(F)(F)CC4)nc3Cl)c12 [Compound P-4058, [2-chloro-6-[(4,4-difluorocyclohexyl)amino]-3-pyridyl]-[4-(methylamino)-7H-pyrrolo[2,3-d]pyrimidin-5-yl]methanone] | > 10 µM | > 10 µM | < 0.1 µM | < 1 µM |
| COc1ccc(Nc2ccc(C(=O)c3c[nH]c4ncnc(NC(C)(C)C)c34)c(F)n2)cn1 [Compound P-4055, [4-(tert-butylamino)-7H-pyrrolo[2,3-d]pyrimidin-5-yl]-[2-fluoro-6-[(6-methoxy-3-pyridyl)amino]-3-pyridyl]methanone] | > 10 µM | > 10 µM | < 1 µM | < 0.01 µM |
| CCc1ccc(Nc2ccc(C(=O)c3c[nH]c4ncnc(N)c34)c(F)n2)cn1 [Compound P-4065, (4-amino-7H-pyrrolo[2,3-d]pyrimidin-5-yl)-[6-[(6-ethyl-3-pyridyl)amino]-2-fluoro-3-pyridyl]methanone] | > 10 µM | > 10 µM | < 0.1 µM | < 0.01 µM |
| CNc1ncnc2[nH]cc(C(=O)c3ccc(NC4CCCCC4)nc3F)c12 [Compound P-4102, [6-(cyclohexylamino)-2-fluoro-3-pyridyl]-[4-(methylamino)-7H-pyrrolo[2,3-d]pyrimidin-5-yl]methanone] | > 10 µM | < 5 µM | < 0.01 µM | < 0.1 µM |
| COc1cncc(Nc2ccc(C(=O)c3c[nH]c4ncnc(NC5CCCCC5)c34)c(F)n2)c1 [Compound P-4104, [4-(cyclohexylamino)-7H-pyrrolo[2,3-d]pyrimidin-5-yl]-[2-fluoro-6-[(5-methoxy-3-pyridyl)amino]-3-pyridyl]methanone] | > 10 µM | > 10 µM | < 0.1 µM | < 0.1 µM |
| CC1CCC(Nc2ncc(Cc3c[nH]c4ncc(Cl)cc34)cn2)CC1 (centres unmarked) [Compound P-3009, [5-(5-Chloro-1H-pyrrolo[2,3-b]pyridin-3-ylmethyl)-pyrimidin-2-yl]-(4-methyl-cyclohexyl)-amine] | 5 to 10 µM | > 10 µM | < 1 µM | > 10 µM |
| CCc1ccc(Nc2ccc(C(=O)c3c[nH]c4ncnc(NC5CCOCC5)c34)c(F)n2)cn1 [Compound P-4116, [6-[(6-ethyl-3-pyridyl)amino]-2-fluoro-3-pyridyl]-[4-(tetrahydropyran-4-ylamino)-7H-pyrrolo[2,3-d]pyrimidin-5-yl]methanone] | > 10 µM | > 10 µM | < 0.01 µM | < 0.01 µM |
| CCN1CCC(Nc2ncnc3[nH]cc(C(=O)c4ccc(Nc5ccc(OC)nc5)nc4F)c23)CC1 [Compound P-4074, [4-[(1-ethyl-4-piperidyl)amino]-7H-pyrrolo[2,3-d]pyrimidin-5-yl]-[2-fluoro-6-[(6-methoxy-3-pyridyl)amino]-3-pyridyl]methanone] | > 10 µM | > 10 µM | < 1 µM | < 0.1 µM |
| CCC(C)Nc1ncnc2[nH]cc(C(=O)c3ccc(Nc4ccc(OC)nc4)nc3F)c12 (centres unmarked) [Compound P-4078, [2-fluoro-6-[(6-methoxy-3-pyridyl)amino]-3-pyridyl]-[4-(sec-butylamino)-7H-pyrrolo[2,3-d]pyrimidin-5-yl]methanone] | > 10 µM | > 10 µM | < 0.01 µM | < 0.01 µM |
| O=C(c1ccc(Nc2ccc(C3CC3)nc2)nc1F)c1c[nH]c2ncnc(NCC(F)(F)F)c12 [Compound P-4090, [6-[(6-cyclopropyl-3-pyridyl)amino]-2-fluoro-3-pyridyl]-[4-(2,2,2-trifluoroethylamino)-7H-pyrrolo[2,3-d]pyrimidin-5-yl]methanone] | > 10 µM | > 10 µM | < 0.1 µM | < 0.01 µM |
| CCCNc1ncnc2[nH]cc(C(=O)c3ccc(Nc4ccc(CC)nc4)nc3F)c12 [Compound P-4122, [6-[(6-ethyl-3-pyridyl)amino]-2-fluoro-3-pyridyl]-[4-(propylamino)-7H-pyrrolo[2,3-d]pyrimidin-5-yl]methanone] | > 10 µM | > 10 µM | < 0.01 µM | < 0.01 µM |
| CNc1ncnc2[nH]cc(C(=O)c3ccc(NC4CCCCC4)nc3Cl)c12 [Compound P-4110, [2-chloro-6-(cyclohexylamino)-3-pyridyl]-[4-(methylamino)-7H-pyrrolo[2,3-d]pyrimidin-5-yl]methanone] | > 10 µM | < 5 µM | < 0.1 µM | > 1 µM |
| COc1ccc(Nc2ccc(C(=O)c3c[nH]c4ncnc(NC5CCC(F)(F)CC5)c34)c(F)n2)cn1 [Compound P-4056, [4-[(4,4-difluorocyclohexyl)amino]-7H-pyrrolo[2,3-d]pyrimidin-5-yl]-[2-fluoro-6-[(6-methoxy-3-pyridyl)amino]-3-pyridyl]methanone] | > 10 µM | > 10 µM | < 1 µM | < 0.01 µM |
| CCc1ccc(Nc2ccc(C(=O)c3c[nH]c4ncnc(NCCOC)c34)c(F)n2)cn1 [Compound P-4119, [6-[(6-ethyl-3-pyridyl)amino]-2-fluoro-3-pyridyl]-[4-(2-methoxyethylamino)-7H-pyrrolo[2,3-d]pyrimidin-5-yl]methanone] | > 10 µM | > 10 µM | < 0.01 µM | < 0.01 µM |
